Reference: ChEMBL document CHEMBL3875143, “Novel multi-target-directed ligands for Alzheimer's disease: Combining cholinesterase inhibitors and 5-HT6 receptor antagonists. Design, synthesis and biological evaluation” (Eur J Med Chem, 2016)
Calls of active or inactive are those of the source. No cut-off for these calls is given here.

Experiments:
[1] = target: 5-hydroxytryptamine receptor 6 (Homo sapiens, UniProt P50406); experiment: biochemical
Description: Displacement of [3H]-LSD from human recombinant 5-HT6 receptor expressed in CHOK1 cell membranes measured after 60 mins by scintillation counter

[2] = target: Cholinesterase (Equus caballus, UniProt P81908)
Sequence of Cholinesterase (Equus caballus, UniProt P81908) (P81908 whole entry): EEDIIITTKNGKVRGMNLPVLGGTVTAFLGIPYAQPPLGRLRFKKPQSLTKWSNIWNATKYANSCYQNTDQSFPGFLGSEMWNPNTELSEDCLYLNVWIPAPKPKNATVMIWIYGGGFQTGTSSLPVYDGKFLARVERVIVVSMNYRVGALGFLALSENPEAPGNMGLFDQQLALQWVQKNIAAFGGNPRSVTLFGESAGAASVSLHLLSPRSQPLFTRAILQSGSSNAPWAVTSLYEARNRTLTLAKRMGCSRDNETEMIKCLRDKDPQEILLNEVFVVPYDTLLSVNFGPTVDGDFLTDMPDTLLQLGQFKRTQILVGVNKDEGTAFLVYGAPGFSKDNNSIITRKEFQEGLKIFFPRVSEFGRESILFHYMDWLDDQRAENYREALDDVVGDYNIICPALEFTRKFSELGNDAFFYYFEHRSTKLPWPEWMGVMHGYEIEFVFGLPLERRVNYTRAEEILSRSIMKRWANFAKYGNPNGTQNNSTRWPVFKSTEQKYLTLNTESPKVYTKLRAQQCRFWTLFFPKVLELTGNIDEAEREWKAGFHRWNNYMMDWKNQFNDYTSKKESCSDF
Description: Inhibition of equine serum BuChE preincubated for 5 mins followed by butyrylthiocholine iodide substrate addition measured after 5 mins by Ellman's method

[3] = target: Acetylcholinesterase (Electrophorus electricus, UniProt O42275)
Sequence of Acetylcholinesterase (Electrophorus electricus, UniProt O42275) (O42275 whole entry): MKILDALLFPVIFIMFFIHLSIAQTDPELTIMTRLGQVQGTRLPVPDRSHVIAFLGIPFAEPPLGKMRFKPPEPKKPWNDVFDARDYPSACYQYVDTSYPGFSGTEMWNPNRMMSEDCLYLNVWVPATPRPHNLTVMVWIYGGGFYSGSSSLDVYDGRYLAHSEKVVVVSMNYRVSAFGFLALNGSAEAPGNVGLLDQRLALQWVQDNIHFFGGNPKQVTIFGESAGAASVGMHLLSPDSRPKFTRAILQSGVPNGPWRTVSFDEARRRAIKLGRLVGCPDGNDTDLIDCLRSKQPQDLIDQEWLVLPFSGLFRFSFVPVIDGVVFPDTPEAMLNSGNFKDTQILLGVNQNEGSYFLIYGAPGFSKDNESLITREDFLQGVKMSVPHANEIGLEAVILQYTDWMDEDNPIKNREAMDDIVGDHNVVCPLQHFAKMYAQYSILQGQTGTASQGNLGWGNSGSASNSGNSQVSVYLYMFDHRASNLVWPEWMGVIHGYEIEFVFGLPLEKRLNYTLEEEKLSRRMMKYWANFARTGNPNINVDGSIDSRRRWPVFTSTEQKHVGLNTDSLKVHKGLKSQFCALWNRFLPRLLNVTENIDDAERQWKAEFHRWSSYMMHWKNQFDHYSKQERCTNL
Description: Inhibition of electric eel AChE preincubated for 5 mins followed by acetylthiocholine iodide substrate addition measured after 5 mins by Ellman's method

[4] = target: Cholinesterase (Equus caballus) (UniProt P81908); experiment: Inhibition of equine serum BuChE at 10 uM preincubated for 5 mins followed by butyrylthiocholine iodide substrate addition measured after 5 mins by Ellman's method relative to control
Sequence of Cholinesterase (Equus caballus) (P81908 whole entry): as the sequence (P81908 whole entry) above

[5] = target: Acetylcholinesterase (Homo sapiens, UniProt P22303); experiment: Inhibition of human recombinant AChE preincubated for 5 mins followed by acetylthiocholine iodide substrate addition measured after 5 mins by Ellman's method
Sequence of Acetylcholinesterase (Homo sapiens, UniProt P22303) (P22303 whole entry): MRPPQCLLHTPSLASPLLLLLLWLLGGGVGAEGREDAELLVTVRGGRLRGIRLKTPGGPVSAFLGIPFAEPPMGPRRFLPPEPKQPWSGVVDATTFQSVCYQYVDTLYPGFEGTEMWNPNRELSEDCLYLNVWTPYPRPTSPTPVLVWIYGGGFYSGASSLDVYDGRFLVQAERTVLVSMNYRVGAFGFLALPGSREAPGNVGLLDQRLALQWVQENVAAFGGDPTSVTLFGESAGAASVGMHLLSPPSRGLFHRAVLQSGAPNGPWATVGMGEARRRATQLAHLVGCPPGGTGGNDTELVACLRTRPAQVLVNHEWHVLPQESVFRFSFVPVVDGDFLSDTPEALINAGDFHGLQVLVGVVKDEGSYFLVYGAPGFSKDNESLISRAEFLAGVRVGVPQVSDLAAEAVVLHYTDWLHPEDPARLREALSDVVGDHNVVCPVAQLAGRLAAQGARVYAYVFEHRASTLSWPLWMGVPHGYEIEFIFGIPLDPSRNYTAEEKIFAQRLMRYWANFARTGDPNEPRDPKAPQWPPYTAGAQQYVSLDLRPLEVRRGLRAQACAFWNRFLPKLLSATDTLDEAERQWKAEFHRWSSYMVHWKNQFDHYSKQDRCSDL

[6] = system: Rattus norvegicus; experiment: Reversal of scopolamine-induced hyperlocomotion in ip dosed Wistar rat; type: functional, organism-based
[7] = Reduction of spontaneous locomotor activity below baseline in Wistar rat at 10 mg/kg, ip in presence of scopolamine by open field assay; type: ADME, organism-based; settings: in vivo
[8] = system: Rattus norvegicus; experiment: Reduction in spontaneous locomotor activity in Wistar rat at 10 mg/kg, ip pretreated for 30 to 180 mins by open field assay; type: functional, organism-based
[9] = target: Cholinesterase (Homo sapiens, UniProt P06276); experiment: Inhibition of human recombinant BuChE preincubated for 5 mins followed by butyrylthiocholine iodide substrate addition measured after 5 mins by Ellman's method
Sequence of Cholinesterase (Homo sapiens, UniProt P06276) (P06276 whole entry): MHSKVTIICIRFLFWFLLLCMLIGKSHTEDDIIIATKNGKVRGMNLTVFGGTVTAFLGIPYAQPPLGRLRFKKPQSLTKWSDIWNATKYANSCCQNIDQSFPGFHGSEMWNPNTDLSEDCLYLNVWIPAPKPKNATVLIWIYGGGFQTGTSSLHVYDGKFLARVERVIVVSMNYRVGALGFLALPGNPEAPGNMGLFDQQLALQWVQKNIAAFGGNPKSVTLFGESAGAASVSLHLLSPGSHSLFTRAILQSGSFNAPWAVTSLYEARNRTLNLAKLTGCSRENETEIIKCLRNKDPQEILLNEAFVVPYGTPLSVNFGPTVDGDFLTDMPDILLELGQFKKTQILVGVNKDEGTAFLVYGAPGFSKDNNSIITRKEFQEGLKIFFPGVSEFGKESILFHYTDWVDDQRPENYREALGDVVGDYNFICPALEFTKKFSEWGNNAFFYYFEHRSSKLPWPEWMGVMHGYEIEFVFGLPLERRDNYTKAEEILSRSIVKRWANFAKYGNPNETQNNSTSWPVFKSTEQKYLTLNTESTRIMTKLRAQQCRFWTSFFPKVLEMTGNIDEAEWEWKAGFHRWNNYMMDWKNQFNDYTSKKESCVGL

[10] = target: Cholinesterase (Equus caballus) (UniProt P81908); settings: 9 to 30 nM
[11] = target: Acetylcholinesterase (Electrophorus electricus) (UniProt O42275); experiment: Non-competitive inhibition of electric eel AChE at 30 to 120 nM using varying levels of acetylthiocholine iodide substrate preincubated for 5 mins followed by substrate addition measured after 5 mins by Line-weaver burk plot method
Sequence of Acetylcholinesterase (Electrophorus electricus) (O42275 24-633 limits assumed): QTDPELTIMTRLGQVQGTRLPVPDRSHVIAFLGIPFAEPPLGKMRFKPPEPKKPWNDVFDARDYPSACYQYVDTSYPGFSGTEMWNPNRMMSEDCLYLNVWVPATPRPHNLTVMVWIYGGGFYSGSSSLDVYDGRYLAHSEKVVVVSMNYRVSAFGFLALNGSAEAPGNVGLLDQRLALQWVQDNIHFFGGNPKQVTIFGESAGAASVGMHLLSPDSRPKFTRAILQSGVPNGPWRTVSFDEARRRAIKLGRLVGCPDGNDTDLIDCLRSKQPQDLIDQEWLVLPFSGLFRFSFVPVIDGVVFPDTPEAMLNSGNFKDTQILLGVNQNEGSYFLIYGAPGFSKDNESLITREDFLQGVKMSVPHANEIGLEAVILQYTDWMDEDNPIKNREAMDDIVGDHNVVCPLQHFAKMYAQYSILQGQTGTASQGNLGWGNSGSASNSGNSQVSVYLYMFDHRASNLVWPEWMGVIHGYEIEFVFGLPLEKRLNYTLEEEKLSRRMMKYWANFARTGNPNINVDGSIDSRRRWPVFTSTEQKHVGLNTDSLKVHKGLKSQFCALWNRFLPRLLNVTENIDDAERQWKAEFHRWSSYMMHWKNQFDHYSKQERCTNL

[12] = system: Rattus norvegicus; experiment: Reduction in spontaneous locomotor activity in ip dosed Wistar rat pretreated for 30 mins by open field assay; type: functional, organism-based
[13] = PAMPA, 2 h

Sequence of 5-hydroxytryptamine receptor 6 (P50406 whole entry): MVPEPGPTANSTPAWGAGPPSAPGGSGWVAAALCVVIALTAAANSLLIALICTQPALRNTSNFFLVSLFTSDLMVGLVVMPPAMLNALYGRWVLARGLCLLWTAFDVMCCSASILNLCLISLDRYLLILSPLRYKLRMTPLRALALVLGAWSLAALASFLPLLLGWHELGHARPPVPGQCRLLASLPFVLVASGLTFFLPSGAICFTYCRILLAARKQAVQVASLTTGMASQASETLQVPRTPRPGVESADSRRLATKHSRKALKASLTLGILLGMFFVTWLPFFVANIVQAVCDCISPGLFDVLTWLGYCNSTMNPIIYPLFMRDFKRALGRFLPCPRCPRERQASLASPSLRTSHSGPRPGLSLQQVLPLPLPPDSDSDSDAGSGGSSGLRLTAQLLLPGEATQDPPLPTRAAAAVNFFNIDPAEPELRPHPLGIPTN

SMILES	Ki [1] [µM]	IC50 [2] [µM]	IC50 [3] [µM]	other results
O=S(=O)(c1ccccc1)n1ccc2c(N3CCN(CCCCNC4CCN(Cc5ccccc5)CC4)CC3)cccc21	0.016	2.16		
O=S(=O)(c1ccccc1)n1ccc2c(N3CCN(CCCCCNCc4ccccc4)CC3)cccc21	0.008	1.67	4.41	
O=S(=O)(c1ccccc1)n1ccc2c(N3CCN(CCCCCCNCc4ccccc4)CC3)cccc21	0.002	2.38		
O=S(=O)(c1ccccc1)n1ccc2c(N3CCN(CCCNCc4ccccc4)CC3)cccc21	0.016	0.608		
CN(CCCCCN1CCN(c2cccc3c2ccn3S(=O)(=O)c2ccccc2)CC1)Cc1ccccc1	0.01	3.07		
O=S(=O)(c1ccccc1)n1ccc2c(N3CCN(CCCNC4CCN(Cc5ccccc5)CC4)CC3)cccc21	0.002	3.22		
O=S(=O)(c1ccccc1)n1ccc2c(N3CCN(CCNC4CCN(Cc5ccccc5)C4)CC3)cccc21 (stereo unspecified)	0.013	3.39		
CN(CCN1CCN(c2cccc3c2ccn3S(=O)(=O)c2ccccc2)CC1)Cc1ccccc1	0.015	1.95		
CN(CCCN1CCN(c2cccc3c2ccn3S(=O)(=O)c2ccccc2)CC1)Cc1ccccc1	0.01			inhibition [4]: 27.8%
O=S(=O)(c1ccccc1)n1ccc2c(N3CCN(CCCCNCc4ccccc4)CC3)cccc21	0.008	2.21		
O=S(=O)(c1ccccc1)n1ccc2c(N3CCN(CCCCCCNc4c5c(nc6ccccc46)CCCC5)CC3)cccc21	0.002	0.0082	0.0459	IC50 [5]: 0.0129 µM; Activity [6]: Dose-dependent effect; Activity [7]: Non-Toxic; Activity [8]: Active; IC50 [9]: 0.0297 µM; inhibition [10]: Active; inhibition [11]: Active; Activity [12]: Dose-dependent effect
O=S(=O)(c1ccccc1)n1ccc2c(N3CCN(CCCCCNc4c5c(nc6ccccc46)CCCC5)CC3)cccc21	0.008	0.0213	0.057	IC50 [5]: 0.0182 µM
CC(=O)[C@H]1CC[C@H]2[C@@H]3CCC4=CC(=O)CC[C@]4(C)[C@H]3CC[C@]12C [PROGESTERONE]				logPeff [13]: -3.8
O=S(=O)(c1ccccc1)n1ccc2c(N3CCN(CCNc4c5c(nc6ccccc46)CCCC5)CC3)cccc21	0.01	0.0168	0.0075	IC50 [5]: 0.0436 µM
O=S(=O)(c1ccccc1)n1ccc2c(N3CCN(CCCCCCCCNc4c5c(nc6ccccc46)CCCC5)CC3)cccc21	0.036	0.0124	0.0071	IC50 [5]: 0.0013 µM
O=S(=O)(c1ccccc1)n1ccc2c(N3CCN(CCCNc4c5c(nc6ccccc46)CCCC5)CC3)cccc21	0.006	0.0142	0.0121	IC50 [5]: 0.0097 µM
O=S(=O)(c1ccccc1)n1ccc2c(N3CCNCC3)cccc21				inhibition [4]: 45.8%
O=S(=O)(c1ccccc1)n1ccc2c(N3CCN(CCNCc4ccccc4)CC3)cccc21	0.012	1.31		
CN(CCCCN1CCN(c2cccc3c2ccn3S(=O)(=O)c2ccccc2)CC1)Cc1ccccc1	0.004	6.22		
O=S(=O)(c1ccccc1)n1ccc2c(N3CCN(CCCCCCCNc4c5c(nc6ccccc46)CCCC5)CC3)cccc21	0.036	0.01	0.0151	IC50 [5]: 0.0062 µM
O=S(=O)(c1ccccc1)n1ccc2c(N3CCN(CCNC4CCN(Cc5ccccc5)CC4)CC3)cccc21	0.039	10.6		
CC(C)NCC(O)COc1cccc2ccccc12 (stereo unspecified) [PROPRANOLOL]				logPeff [13]: -3.7
